Measurements from the CheMixHub viscosity set.

Assay: xn = mol fraction of the nth substance listed

CCN(CC)CC + CCc1ccccc1
303.15 K, 101 kPa
Details	viscosity [mPa·s]
x1 = 0.01075	0.5914
x1 = 0.02054	0.5873
x1 = 0.03021	0.5822
x1 = 0.04405	0.5755
x1 = 0.05034	0.5715
x1 = 0.06324	0.5666
x1 = 0.07098	0.5623
x1 = 0.0794	0.5569
x1 = 0.09408	0.5505
x1 = 0.1003	0.5476

[Br-].[Li+] + CN1CCCC1=O
298.15 K, 101 kPa
Details	viscosity [mPa·s]
x1 = 0.02596	2.385
x1 = 0.02626	2.359
x1 = 0.02735	2.37
x1 = 0.05088	3.13
x1 = 0.05114	3.124
x1 = 0.05202	3.192
x1 = 0.07505	4.349
x1 = 0.07536	4.344
x1 = 0.07626	4.329

ClC(Cl)(Cl)Cl + CN(C)C=O
viscosity [mPa·s], 101.3 kPa
Details	x1 = 0.1208	x1 = 0.129	x1 = 0.2535	x1 = 0.2556	x1 = 0.4423	x1 = 0.4437	x1 = 0.5937	x1 = 0.595	x1 = 0.8073	x1 = 0.8235
298 K	–	0.879	–	0.918	–	0.958	–	0.966	0.949	–
318 K	0.6789	–	0.7118	–	0.745	–	0.7608	–	–	0.7506

CCCC(C)=O + CN(C)c1ccccc1
viscosity [mPa·s], 101 kPa
Details	303.15 K	308.15 K
x2 = 0.0756	0.574	0.525
x2 = 0.1362	0.669	0.611
x2 = 0.2003	0.76	0.7
x2 = 0.2795	0.875	0.803
x2 = 0.3412	0.941	0.873
x2 = 0.4101	1.012	0.94
x2 = 0.4921	1.072	1.001
x2 = 0.5741	1.112	1.041
x2 = 0.6512	1.134	1.063
x2 = 0.7214	1.143	1.071
x2 = 0.7914	1.148	1.074
x2 = 0.8512	1.15	1.076
x2 = 0.9214	1.159	1.085

CCC(C)(O)CC + CO
298.15 K, 101.33 kPa
Details	viscosity [mPa·s]
x2 = 0.1032	3.799
x2 = 0.2156	3.553
x2 = 0.3158	3.317
x2 = 0.4019	3.048
x2 = 0.5004	2.6
x2 = 0.6084	2.079
x2 = 0.7088	1.568
x2 = 0.8021	1.16
x2 = 0.9011	0.8027

[Br-].[Li+] + CO
101 kPa
Details	viscosity [mPa·s]
293.15 K, x2 = 0.7334	86.34
293.15 K, x2 = 0.7699	40.18
293.15 K, x2 = 0.804	20.18
293.15 K, x2 = 0.8367	10.43
293.15 K, x2 = 0.8645	6.343
293.15 K, x2 = 0.8908	4.223
303.15 K, x2 = 0.6926	102.1
303.15 K, x2 = 0.7326	55.05
303.15 K, x2 = 0.7698	28.35
303.15 K, x2 = 0.8039	15.05
303.15 K, x2 = 0.836	8.725
303.15 K, x2 = 0.8642	5.422
303.15 K, x2 = 0.8908	3.697
313.15 K, x2 = 0.6913	65.32
313.15 K, x2 = 0.7324	35.2
313.15 K, x2 = 0.7697	19.67
313.15 K, x2 = 0.8039	11.37
313.15 K, x2 = 0.836	7.147
313.15 K, x2 = 0.8644	4.634
313.15 K, x2 = 0.8908	3.566
323.15 K, x2 = 0.691	42.31
323.15 K, x2 = 0.7323	24.55
323.15 K, x2 = 0.7696	14.41
323.15 K, x2 = 0.8039	9.136
323.15 K, x2 = 0.836	5.438
323.15 K, x2 = 0.8644	3.976

ClC(Cl)(Cl)Cl + COC(=O)OC
viscosity [mPa·s], 101.33 kPa
Details	x2 = 0.0994	x2 = 0.201	x2 = 0.3063	x2 = 0.4005	x2 = 0.5036	x2 = 0.5982	x2 = 0.7031	x2 = 0.833	x2 = 0.8997
298.15 K	0.77	0.724	0.689	0.656	0.631	0.608	0.585	0.557	0.543
303.15 K	0.719	0.68	0.646	0.614	0.588	0.572	0.548	0.52	0.511
308.15 K	0.676	0.633	0.604	0.575	0.551	0.536	0.516	0.493	0.481

ClC(Cl)(Cl)Cl + COC(C)=O
303.15 K, 101.3 kPa
Details	viscosity [mPa·s]
x2 = 0.1004	0.763
x2 = 0.1926	0.7035
x2 = 0.2864	0.6472
x2 = 0.4018	0.587
x2 = 0.5025	0.5405
x2 = 0.6004	0.5006
x2 = 0.7001	0.4608
x2 = 0.8964	0.3807

ClC(Cl)(Cl)Cl + COCCO
viscosity [mPa·s], 100 kPa
Details	x1 = 0.0831	x1 = 0.1694	x1 = 0.2591	x1 = 0.3523	x1 = 0.4494	x1 = 0.5504	x1 = 0.6557	x1 = 0.7655	x1 = 0.8802
298.15 K	1.569	1.49	1.412	1.335	1.26	1.186	1.114	1.043	0.9736
303.15 K	1.392	1.328	1.265	1.202	1.171	1.079	1.019	0.9601	0.902
308.15 K	1.24	1.188	1.137	1.111	1.036	0.9853	0.9601	0.8863	0.8376
313.15 K	1.108	1.067	1.025	0.9841	0.9429	0.9015	0.8608	0.8201	0.7796
